Test results published in paper PMC8621172, “Manipulating Estrogenic/Anti-Estrogenic Activity of Triphenylethylenes towards Development of Novel Anti-Neoplastic SERMs” (International Journal of Molecular Sciences, 2021).
Where “and” joins values, the source holds several entries; their conditions need not be identical. Identical values can stand only once.

Columns and labels:
human ERα = biological target: T1, human ERα (Homo sapiens, UniProt P03372); test: Yeast estrogen screen (YES) assay, agonistic activity (β-galactosidase reporter); format: cell-based; settings: triplicates; for Estrogenic Activity (relative β-galactosidase activity): compounds at 1 µM, compared to DMSO (set as 1); for EC50: YES assay
T1 construct: host or cells: Saccharomyces cerevisiae
T1 sequence (P03372 1-595): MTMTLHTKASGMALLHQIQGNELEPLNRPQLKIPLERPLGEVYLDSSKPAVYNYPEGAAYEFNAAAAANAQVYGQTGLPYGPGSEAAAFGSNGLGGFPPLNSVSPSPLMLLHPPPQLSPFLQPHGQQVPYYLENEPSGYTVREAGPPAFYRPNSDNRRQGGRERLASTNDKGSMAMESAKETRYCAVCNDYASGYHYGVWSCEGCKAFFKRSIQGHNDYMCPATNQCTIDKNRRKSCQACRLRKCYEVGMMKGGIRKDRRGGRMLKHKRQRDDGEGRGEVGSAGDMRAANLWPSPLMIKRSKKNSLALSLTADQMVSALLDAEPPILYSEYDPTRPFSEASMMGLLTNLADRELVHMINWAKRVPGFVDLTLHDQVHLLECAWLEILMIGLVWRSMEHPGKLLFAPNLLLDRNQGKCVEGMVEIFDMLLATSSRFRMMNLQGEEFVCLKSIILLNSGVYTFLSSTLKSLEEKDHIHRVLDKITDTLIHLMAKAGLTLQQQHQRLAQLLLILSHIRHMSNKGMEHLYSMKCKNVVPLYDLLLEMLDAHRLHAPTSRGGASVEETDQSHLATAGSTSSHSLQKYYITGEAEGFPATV
Experimental: All synthesized compounds were tested for their relative activity in β-galactosidase in a yeast estrogen screen (YES) assay. Compounds were tested for their relative estrogenic/anti-estrogenic activities in comparison to positive and negative controls, respectively. YES assay is a gene reporter assay where the DNA sequence of human ERα is integrated into the yeast genome completed with an expression plasmid carrying estrogen response elements (ERE) in the promoter controlling the expression of the reporter gene lacZ (encoding the enzyme β-galactosidase). In the presence of estrogenic compounds, β-galactosidase is synthesized and secreted into the medium, where it converts the chromogenic substrate chlorophenol red-β-D-galactopyranoside (CRPG) from a yellow to a red product, whose absorbance is measured. […] Therefore, we decided to test the novel compounds in an organ-specific in vitro model using the human Ishikawa endometrial adenocarcinoma cell line.
All synthesized compounds were tested for their relative β-galactosidase activity in a yeast estrogen screen (YES) assay at a concentration of 1 µM using DMSO as control (set as 1).
The yeast estrogen receptor assay was supplied by Dr. J.P. Sumpter (Brunel University, Uxbridge, UK) and was used to determine the relative transactivation activity of the human ERα as formerly described. Briefly, Saccharomyces cerevisiae stably transfected with a human ERα and an estrogen-responsive element fused to the reporter gene lacZ encoding for β-galactosidase were treated with the test substances for about 48 h. The β-galactosidase enzymatic activity was measured in a colorimetric assay using a microplate photometer by hydrolysis of the substrate chlorophenol red β-D-galactopyranoside (Roche Diagnostics, Mannheim, Germany), which leads to the formation of chlorophenol red. This can be measured as an increased absorption at 540 nm. All compounds were diluted in DMSO. […] All compounds were tested in technical quadruplicates and biological triplicates. Statistical analysis was performed by analysis of variance (ANOVA) and Tukey’s post-hoc test with the significance level of p < 0.05.

60 NCI tumor cell lines = test: NCI-60 single-dose growth inhibition screen (SRB); format: cell-based, human; settings: for inhibition at 10 µM: Homo sapiens, mean over 60 NCI tumor cell lines; for anti-proliferative activity (in words): 10 µM, NCI-60 panel and MCF-7
Experimental: The anti-proliferative effects of the novel analogs were tested in vitro by the National Cancer Institute (NCI) on a panel of 60 human tumor cell lines at 10 µM. Compounds that elicited mean growth inhibition ≥50% were selected by the NCI for 5-dose testing.
Compounds were submitted to the Developmental Therapeutics Program (DTP) of the National Cancer Institute (NCI). The program uses a panel of 60 human tumor cell lines representing nine tissue types, including leukemia, non-small cell lung cancer (NSCLC), melanoma, colon cancer, ovarian cancer, CNS cancer, renal cancer, prostate cancer, and breast cancer, to screen for potential new anti-cancer agents. […] Primary screening of synthesized compounds was performed by testing a single high dose of 10 µM in the full NCI-60 panel. The percent growth of treated cells relative to the no-drug control and relative to the time zero number of cells was measured, and a mean graph was provided. The percentage inhibition was then calculated by subtracting the values obtained from 100.
All compounds were subjected to the NCI in vitro disease-oriented human cells screening panel assay. The human tumor cell lines of the cancer-screening panel are grown in RPMI 1640 medium containing 5% fetal bovine serum and 2 mM L-glutamine. For a typical screening experiment, cells are inoculated into 96-well microtiter plates in 100 μL at plating densities ranging from 5000 to 40,000 cells/well depending on the doubling time of individual cell lines. After cell inoculation, the microtiter plates are incubated at 37 °C, 5% CO2, 95% air, and 100% relative humidity for 24 h prior to the addition of experimental drugs. After 24 h, two plates of each cell line are fixed in situ with TCA to represent a measurement of the cell population for each cell line at the time of drug addition. Experimental drugs are solubilized in dimethyl sulfoxide at 400-fold the desired final maximum test concentration and stored frozen prior to use. At the time of drug addition, an aliquot of frozen concentrate is thawed and diluted to twice the desired final maximum test concentration with complete medium containing 50 μg/mL gentamicin. Additional four, 10-fold, or ½ log serial dilutions are made to provide a total of five drug concentrations plus control. Aliquots of 100 μL of these different drug dilutions are added to the appropriate microtiter wells already containing 100 μL of medium, resulting in the required final drug concentrations. Following drug addition, the plates are incubated for an additional 48 h at 37 °C, 5% CO2, 95% air, and 100% relative humidity. For adherent cells, the assay is terminated by the addition of cold TCA. Cells are fixed in situ by the gentle addition of 50 μL of cold 50% (w/v) TCA (final concentration, 10% TCA) and incubated for 60 min at 4 °C. The supernatant is discarded, and the plates are washed five times with tap water and air-dried. Sulforhodamine B (SRB) solution (100 μL) at 0.4% (w/v) in 1% acetic acid is added to each well, and plates are incubated for 10 min at room temperature. After staining, unbound dye is removed by washing five times with 1% acetic acid, and the plates are air-dried. Bound stain is subsequently solubilized with a 10 mM trizma base, and the absorbance is read on an automated plate reader at a wavelength of 515 nm. For suspension cells, the methodology is the same except that the assay is terminated by fixing settled cells at the bottom of the wells by gently adding 50 μL of 80% TCA (final concentration, 16% TCA). Compounds are screened at a dose of 10 µM, hits showing mean growth inhibition over 60 cell lines >50% are escalated for 5-dose screening assay.

`CC(=C(c1ccc(Cl)cc1)c1ccc(OCCN2CCCCC2)cc1)c1ccccc1` [Compound 7, E/Z-1-(2-{4-[1-(4-Chloro-phenyl)-2-phenyl-propenyl]-phenoxy}-ethyl)-piperidine] was tested, and the “Estrogenic Activity (relative β-galactosidase activity)” value (human ERα) was 2.87 ± 0.90 and the inhibition at 10 µM (60 NCI tumor cell lines) was 29%.
For `COc1ccc(C(C)=C(c2ccc(Cl)cc2)c2ccc(OCCCN(C)C)cc2)cc1` [Compound 10, E/Z-(3-{4-[1-(4-Chloro-phenyl)-2-(4-methoxy-phenyl)-propenyl]-phenoxy}-propyl)-dimethyl-amine], the “Estrogenic Activity (relative β-galactosidase activity)” value (human ERα) was 11.61 and 11.61 ± 0.99 and the inhibition at 10 µM (60 NCI tumor cell lines) was 33.4%.
With `COc1cc(C(C)=C(c2ccc(Cl)cc2)c2ccc(OCCN(C)C)cc2)ccc1F` [Compound 27, E/Z-(2-{4-[1-(4-Chlorophenyl)-2-(4-fluoro-3-methoxyphenyl)-propenyl]-phenoxy}-ethyl)-dimethyl-amine] the “Estrogenic Activity (relative β-galactosidase activity)” value (human ERα) was 1.15 ± 0.17 and the inhibition at 10 µM (60 NCI tumor cell lines) was 47.2%.
In the case of `COc1ccc(C(C)=C(c2ccc(O)cc2)c2ccc(Cl)cc2)cc1F` [Compound 3, E/Z-4-[1-(4-Chlorophenyl)-2-(3-fluoro-4-methoxyphenyl)propenyl]-phenol], the EC50 (human ERα) is reported as 40 nM and 40.1 nM, the “Estrogenic Activity (relative β-galactosidase activity)” value (human ERα) is reported as 12.83 ± 2.72 and the “anti-proliferative activity (in words)” value (60 NCI tumor cell lines) is reported as “lacked anti-proliferative activity”. For the same compound, the inhibition at 10 µM (60 NCI tumor cell lines) was 2.34%.
With `CC(=C(c1ccc(Cl)cc1)c1ccc(OCCCN(C)C)cc1)c1ccccc1` [Compound 5, E/Z-(3-{4-[1-(4-Chloro-phenyl)-2-phenyl-propenyl]-phenoxy}-propyl)-dimethyl-amine] the “Estrogenic Activity (relative β-galactosidase activity)” value (human ERα) was 2.25 ± 0.92 and the inhibition at 10 µM (60 NCI tumor cell lines) was 15.4%.
`COc1ccc(C(C)=C(c2ccc(Cl)cc2)c2ccc(OCCN3CCOCC3)cc2)cc1F` [Compound 18, E/Z-4-(2-{4-[1-(4-Chlorophenyl)-2-(3-fluoro-4-methoxyphenyl)-propenyl]-phenoxy}-ethyl)-morpholine] was tested, and the “Estrogenic Activity (relative β-galactosidase activity)” value (human ERα) was 1.76 ± 0.56, the “anti-proliferative activity (in words)” value (60 NCI tumor cell lines) was “lacked anti-proliferative activity” and the inhibition at 10 µM (60 NCI tumor cell lines) was 4.23%.
`CCN(CC)CCOc1ccc(C(=C(C)c2ccc(OC)c(F)c2)c2ccc(Cl)cc2)cc1` [Compound 21, E/Z-(2-{4-[1-(4-Chlorophenyl)-2-(3-fluoro-4-methoxyphenyl)-propenyl]-phenoxy}-ethyl)-diethyl-amine] was tested, and the EC50 (human ERα) was 735 ± 13 nM, the “Estrogenic Activity (relative β-galactosidase activity)” value (human ERα) was 2.40 ± 0.77 and the inhibition at 10 µM (60 NCI tumor cell lines) was 31.2%.
In the case of `COc1ccc(C(C)=C(c2ccc(Cl)cc2)c2ccc(OCCN3CCCCC3)cc2)cc1F` [Compound 17, E/Z-1-(2-{4-[1-(4-Chlorophenyl)-2-(3-fluoro-4-methoxyphenyl)-propenyl]-phenoxy}-ethyl)-piperidine], the EC50 (human ERα) is reported as 252 ± 8 nM, the “Estrogenic Activity (relative β-galactosidase activity)” value (human ERα) is reported as 7.28 and 7.28 ± 3.10 and the inhibition at 10 µM (60 NCI tumor cell lines) is reported as 69.1%.
In the case of `COc1ccc(C(C)=C(c2ccc(Cl)cc2)c2ccc(OCCCN(C)C)cc2)cc1F` [Compound 15, E/Z-(3-{4-[1-(4-Chlorophenyl)-2-(3-fluoro-4-methoxyphenyl)-propenyl]-phenoxy}-propyl)-dimethyl-amine], the EC50 (human ERα) is reported as 440 ± 10 nM, the “Estrogenic Activity (relative β-galactosidase activity)” value (human ERα) is reported as 7.77 and 7.77 ± 1.9 and the inhibition at 10 µM (60 NCI tumor cell lines) is reported as 47.9%.
In the case of `COc1cc(C(C)=C(c2ccc(Cl)cc2)c2ccc(OCCN3CCCCCC3)cc2)ccc1F` [Compound 26, E/Z-1-(2-{4-[1-(4-Chlorophenyl)-2-(4-fluoro-3-methoxyphenyl)-propenyl]-phenoxy}-ethyl)-azepane], the “Estrogenic Activity (relative β-galactosidase activity)” value (human ERα) is reported as 1.78 ± 0.64 and the inhibition at 10 µM (60 NCI tumor cell lines) is reported as 28.3%.
